Results as given in PubChem BioAssay AID248 (DTP/NCI, 2004).
Values joined by “and” are separate entries in the source; they are usually repeats but may differ in a detail not shown here. Equal values may be shown once. Toxic doses and inconclusive results are not listed. No stated cut-off is given here; in the data, active means T/C of 150% or more; inactive means T/C below 125%.

Test system: L1210 leukemia ip in BDF1 mice, survival T/C
Assay: NCI In Vivo Anticancer Drug Screen. Data for tumor model L1210 Leukemia (intraperitoneal) in B6D2F1 (BDF1) mice
Conditions: endpoint: mean survival time, higher = longer survival
Summary of the method: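 Ratio derived from survival: compound-dosed mice over vehicle-dosed mice, all bearing a transplantable tumor.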

[1] = dose: 100.0 mg/kg/injection, schedule: Q04DX003 (ip), vehicle: saline
[2] = dose: 200.0 mg/kg/injection, schedule: Q04DX003 (ip), vehicle: saline
[3] = dose: 400.0 mg/kg/injection, schedule: Q04DX003 (ip), vehicle: saline
[4] = dose: 75.0 mg/kg/injection, schedule: Q01DX001 (ip), vehicle: saline
[5] = dose: 150.0 mg/kg/injection, schedule: Q01DX001 (ip), vehicle: saline
[6] = dose: 100.0 mg/kg/injection, schedule: Q01DX009 (ip), vehicle: Klucel (hydroxypropylcellulose) (HPC)
[7] = dose: 50.0 mg/kg/injection, schedule: Q01DX009 (ip), vehicle: saline with Tween-80
[8] = dose: 100.0 mg/kg/injection, schedule: Q01DX009 (ip), vehicle: saline with Tween-80
[9] = dose: 100.0 mg/kg/injection, schedule: Q04DX003 (ip), vehicle: saline with Tween-80
[10] = dose: 100.0 mg/kg/injection, schedule: Q01DX009 (ip), vehicle: saline
[11] = dose: 200.0 mg/kg/injection, schedule: Q01DX009 (ip), vehicle: saline
[12] = dose: 400.0 mg/kg/injection, schedule: Q01DX009 (ip), vehicle: saline
[13] = dose: 200.0 mg/kg/injection, schedule: Q01DX009 (ip), vehicle: saline with Tween-80
[14] = dose: 100.0 mg/kg/injection, schedule: Q04DX002 (ip), vehicle: saline with Tween-80
[15] = dose: 200.0 mg/kg/injection, schedule: Q04DX002 (ip), vehicle: saline with Tween-80
[16] = dose: 200.0 mg/kg/injection, schedule: Q04DX003 (ip), vehicle: saline with Tween-80
[17] = dose: 400.0 mg/kg/injection, schedule: Q04DX003 (ip), vehicle: saline with Tween-80

Measured: T/C

CC(C)=CCC(CCN1CCCCC1)(C(N)=O)c1cccc2ccccc12 (configuration not stated)
inactive: dose: 1.5 mg/kg/injection, schedule: Q01DX009 (ip), vehicle: Klucel (hydroxypropylcellulose) (HPC) 104 % of control | dose: 3.12 mg/kg/injection, schedule: Q01DX009 (ip), vehicle: Klucel (hydroxypropylcellulose) (HPC) 104 % of control | dose: 6.25 mg/kg/injection, schedule: Q01DX009 (ip), vehicle: Klucel (hydroxypropylcellulose) (HPC) 95 % of control | dose: 6.25 mg/kg/injection, schedule: Q04DX002 (ip), vehicle: Klucel (hydroxypropylcellulose) (HPC) 97 % of control | dose: 12.5 mg/kg/injection, schedule: Q04DX002 (ip), vehicle: Klucel (hydroxypropylcellulose) (HPC) 97 % of control | dose: 25.0 mg/kg/injection, schedule: Q04DX002 (ip), vehicle: Klucel (hydroxypropylcellulose) (HPC) 103 % of control

C=CC1CCC2OC(=O)C(=C)C2C1 (configuration not stated)
inactive: [1] 101 % of control | [2] 95 % of control | [3] 101 % of control

[Cl][Tl]
inactive: dose: 100.0 mg/kg/injection, schedule: Q01DX001 (ip), vehicle: saline 94 % of control | [1] 106 % of control | dose: 200.0 mg/kg/injection, schedule: Q01DX001 (ip), vehicle: saline 101 % of control | [2] 90 % of control | dose: 400.0 mg/kg/injection, schedule: Q01DX001 (ip), vehicle: saline 94 % of control

CCOc1ccc([N+](=O)[O-])cc1N(C)C(C)=O
inactive: [4] 102 % of control | [5] 102 % of control | dose: 300.0 mg/kg/injection, schedule: Q01DX001 (ip), vehicle: saline 107 % of control

O=C(NCCCCCCNC(=O)Nc1cccc(C(F)(F)F)c1)Nc1cccc(C(F)(F)F)c1
inactive: [6] 97 % of control | dose: 200.0 mg/kg/injection, schedule: Q01DX009 (ip), vehicle: Klucel (hydroxypropylcellulose) (HPC) 92 % of control | dose: 400.0 mg/kg/injection, schedule: Q01DX009 (ip), vehicle: Klucel (hydroxypropylcellulose) (HPC) 92 % of control

CC1=NCC[N-]CC[N-]CCN=C(C)C2CCCC1[N-]2.[Mn+3]
inactive: dose: 10.0 mg/kg/injection, schedule: Q01DX001 (ip), vehicle: saline 105 % of control | dose: 20.0 mg/kg/injection, schedule: Q01DX001 (ip), vehicle: saline 102 % of control | dose: 40.0 mg/kg/injection, schedule: Q01DX001 (ip), vehicle: saline 102 % of control

O=C(NC(NC(=O)c1ccc(Cl)cc1)C(Cl)(Cl)Cl)c1ccc(Cl)cc1
inactive: dose: 25.0 mg/kg/injection, schedule: Q01DX009 (ip), vehicle: saline with Tween-80 100 % of control | [7] 93 % of control | [8] 92 % of control | [9] 92 % of control

NO
inactive: dose: 62.5 mg/kg/injection, schedule: Q01DX Z (oral), vehicle: saline 102 % of control | dose: 125.0 mg/kg/injection, schedule: Q01DX Z (oral), vehicle: saline 104 % of control | dose: 250.0 mg/kg/injection, schedule: Q01DX Z (oral), vehicle: saline 114 % of control

Cn1c(CN(CCCl)CCCl)nc2c1c(=O)[nH]c(=O)n2C
inactive: dose: 50.0 mg/kg/injection, schedule: Q01DX001 (ip), vehicle: carboxymethylcellulose (CMC) 108 % of control | dose: 100.0 mg/kg/injection, schedule: Q01DX001 (ip), vehicle: carboxymethylcellulose (CMC) 102 % of control | dose: 178.0 mg/kg/injection, schedule: Q01DX001 (ip), vehicle: carboxymethylcellulose (CMC) 109 % of control | dose: 200.0 mg/kg/injection, schedule: Q01DX001 (ip), vehicle: carboxymethylcellulose (CMC) 119 % of control | dose: 267.0 mg/kg/injection, schedule: Q01DX001 (ip), vehicle: carboxymethylcellulose (CMC) 111 % of control and 116 % of control | dose: 400.0 mg/kg/injection, schedule: Q01DX001 (ip), vehicle: carboxymethylcellulose (CMC) 93 % of control | dose: 600.0 mg/kg/injection, schedule: Q01DX001 (ip), vehicle: carboxymethylcellulose (CMC) 90 % of control

CCOC(=O)CCCSCCCC(=O)OCC
inactive: [10] 111 % of control | [1] 111 % of control | [11] 101 % of control | [2] 98 % of control | [12] 110 % of control | [3] 88 % of control

COc1cc(C(N)=O)cc(OC)c1O
inactive: [10] 92 % of control | [1] 97 % of control | [11] 103 % of control | [2] 108 % of control | [12] 113 % of control | [3] 100 % of control

O=c1c(Cl)c(-c2ccccc2)nc2ccccn12
inactive: dose: 12.5 mg/kg/injection, schedule: Q01DX001 (ip), vehicle: saline with Tween-80 100 % of control | dose: 25.0 mg/kg/injection, schedule: Q01DX001 (ip), vehicle: saline with Tween-80 110 % of control | dose: 50.0 mg/kg/injection, schedule: Q01DX001 (ip), vehicle: saline with Tween-80 93 % of control

CCOC(=O)c1[nH]c(-c2ccc(OC)cc2)c(C(=O)OCC)c1-c1ccccc1
inactive: dose: 100.0 mg/kg/injection, schedule: Q01DX001 (ip), vehicle: Klucel (hydroxypropylcellulose) (HPC) 88 % of control | dose: 200.0 mg/kg/injection, schedule: Q01DX001 (ip), vehicle: Klucel (hydroxypropylcellulose) (HPC) 108 % of control | dose: 400.0 mg/kg/injection, schedule: Q01DX001 (ip), vehicle: Klucel (hydroxypropylcellulose) (HPC) 114 % of control

Nc1scc2[nH]c3ccccc3[n+]12
inactive: dose: 100.0 mg/kg/injection, schedule: Q04DX002 (ip), vehicle: saline 100 % of control | dose: 200.0 mg/kg/injection, schedule: Q04DX002 (ip), vehicle: saline 104 % of control

CSc1ncc(C=O)c(N)n1
inactive: [8] 100 % of control | [13] 96 % of control

O=C(c1ccccc1[N+](=O)[O-])C(Br)C(Br)c1cccc2ccccc12 (configuration not stated)
inactive: [7] 96 % of control and 91 % of control | dose: 100.0 mg/kg/injection, schedule: Q01DX001 (ip), vehicle: saline with Tween-80 96 % of control | [8] 93 % of control and 94 % of control | [14] 93 % of control | [9] 90 % of control | dose: 200.0 mg/kg/injection, schedule: Q01DX001 (ip), vehicle: saline with Tween-80 96 % of control | [13] 86 % of control and 89 % of control | [15] 88 % of control and 90 % of control | [16] 91 % of control | dose: 400.0 mg/kg/injection, schedule: Q01DX001 (ip), vehicle: saline with Tween-80 100 % of control | [17] 88 % of control

CCCCC(C)O[Si](C)C1(C)CCCCC1 (configuration not stated)
inactive: [9] 94 % of control | [16] 95 % of control | [17] 106 % of control

CC1=N/C(=N\c2nc3ccccc3[nH]2)NC(=O)CC1
inactive: [4] 101 % of control | [5] 93 % of control

C=CC1CC[N-]CC1.C=CC1CC[N-]CC1.C=CC1CC[N-]CC1.[Cl][Cr]([Cl])[Cl]
inactive: dose: 25.0 mg/kg/injection, schedule: Q01DX009 (ip), vehicle: saline 97 % of control | dose: 50.0 mg/kg/injection, schedule: Q01DX009 (ip), vehicle: saline 94 % of control

CCCCCCCCCCCCNc1ccc(S(=O)(=O)c2ccc(N)cc2)cc1
inactive: [14] 100 % of control | [15] 97 % of control | dose: 400.0 mg/kg/injection, schedule: Q04DX002 (ip), vehicle: saline with Tween-80 103 % of control

CCCNC(=O)Oc1ccc(Nc2ccccc2)cc1
inactive: dose: 100.0 mg/kg/injection, schedule: Q04DX002 (ip), vehicle: Klucel (hydroxypropylcellulose) (HPC) 118 % of control | dose: 200.0 mg/kg/injection, schedule: Q04DX002 (ip), vehicle: Klucel (hydroxypropylcellulose) (HPC) 103 % of control | dose: 400.0 mg/kg/injection, schedule: Q04DX002 (ip), vehicle: Klucel (hydroxypropylcellulose) (HPC) 107 % of control

CC(C)(C)OC(=O)NC(CC(=O)OCc1ccccc1)C(=O)O (configuration not stated)
inactive: [6] 87 % of control | dose: 100.0 mg/kg/injection, schedule: Q04DX003 (ip), vehicle: Klucel (hydroxypropylcellulose) (HPC) 93 % of control | dose: 200.0 mg/kg/injection, schedule: Q04DX003 (ip), vehicle: Klucel (hydroxypropylcellulose) (HPC) 95 % of control | dose: 400.0 mg/kg/injection, schedule: Q04DX003 (ip), vehicle: Klucel (hydroxypropylcellulose) (HPC) 106 % of control
